Results on 13 compounds are retold here after patent US20260297085A1, “1 H-PYRROLO[2,3-B]PYRIDIN-4-YL]-2-OXOPYRROLIDINE-3-CARBONITRILE DERIVATIVES AS TYROSINE KINASE 2 (TYK2) INHIBITORS FOR THE TREATMENT OF INFLAMMATORY DISEASES” (BIOGEN MA INC., priority 2023, published 2026).

In test [1] the target is T1, human JAK1 kinase domain (JH1) (Homo sapiens, UniProt P23458).
T1 construct: recombinantly generated catalytic kinase (also known as JH1) domain of human JAK1, JAK2, JAK3 and TYK2
Nature of the test: JH1 biochemical assay for JAK1 (ADP-Glo kinase assay, recombinant JH1 catalytic domain, JAK3-342 peptide, 35 μM ATP). The conditions noted are these: JH1 kinase domain, ADP-Glo. In a few lines:
(§1)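 Reactions ran 100 min with 50 μM substrate peptide (JAK3-342 for JAK1 at 4 nM enzyme; JAK3-974 for JAK2 0.2 nM, JAK3 0.3 nM, TYK2 2 nM), and ADP formed was read by ADP-Glo luminescence. Eleven-point 3-fold series from 10 or 1 μM; IC50 fitted by 4-parameter logistic model.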

Test [2] addresses Tyk2 kinase activity on STAT4 in NK92 cells (Homo sapiens, UniProt P29597). Nature of the test: pSTAT4 cell assay (MSD; NK92 cells, 30 ng/mL IL2 stimulation). The class given is cell-based. The conditions noted are these: 30 ng/mL IL2, 15 minutes. In a few lines: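 Read-out: phospho-STAT in NK92 lysates, MSD format, anti-STAT4 antibodies. Cells were serum-starved, given compound for 1 hr (10 μM top, four-fold, 10 points) and IL2-stimulated (30 ng/mL, 15 min). Normalized percent activity vs log concentration, 4-parameter logistic fit gave IC50.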

The target in test [3] is T2, human JAK3 kinase domain (JH1) (Homo sapiens, UniProt P52333).
T2 construct: recombinantly generated catalytic kinase (also known as JH1) domain of human JAK1, JAK2, JAK3 and TYK2
The test is described as follows: JH1 biochemical assay for JAK3 (ADP-Glo kinase assay, recombinant JH1 catalytic domain, JAK3-974 peptide, 4 μM ATP). The settings on record: JH1 kinase domain, ADP-Glo. In a few lines:
as §1

Test [4] deals with T3, human TYK2 kinase domain (JH1) (Homo sapiens, UniProt P29597).
T3 construct: recombinantly generated catalytic kinase (also known as JH1) domain of human JAK1, JAK2, JAK3 and TYK2
T3 sequence (P29597 897-1176 limits assumed): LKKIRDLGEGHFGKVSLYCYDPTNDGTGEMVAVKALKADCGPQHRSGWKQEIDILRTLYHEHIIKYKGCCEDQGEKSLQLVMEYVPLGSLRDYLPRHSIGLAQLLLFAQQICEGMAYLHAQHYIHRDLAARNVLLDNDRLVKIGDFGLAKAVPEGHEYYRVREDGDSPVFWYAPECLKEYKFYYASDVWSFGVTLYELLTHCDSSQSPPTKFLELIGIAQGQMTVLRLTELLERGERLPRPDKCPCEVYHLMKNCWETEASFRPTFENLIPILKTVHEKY
Nature of the test: JH1 biochemical assay for TYK2 (ADP-Glo kinase assay, recombinant JH1 catalytic domain, JAK3-974 peptide, 10 μM ATP). The conditions noted are these: JH1 kinase domain, ADP-Glo. In a few lines:
as §1

Test [5] has as its target JAK2 kinase activity on STAT5 in TF1 cells (Homo sapiens, UniProt O60674). The test is described as follows: pSTAT5 cell assay (MSD; TF1 cells, 30 ng/mL IL-3 stimulation). The settings on record: 30 ng/mL IL-3, 15 minutes. The class given is cell-based. As for the experimental part: The inhibitory potency of compounds of the disclosure against the JAK2 kinase activity on STAT5 was evaluated using an MSD-platform plate-based assay format. TF1 cells natively expressing STAT5 and JAK2 were serum-starved to reduce background phosphorylation levels, then cells were treated with compounds of disclosure for 1 hour with a 10-point four-fold dilution series starting at 10 μM. Cells were then stimulated with 30 ng/mL IL-3 for 15 minutes. Cells were then lysed and pSTAT5 levels were quantitated using an MSD plate-based assay with anti-STAT5 antibodies. The data were normalized and the percent activity versus log concentration of compound was fitted with a 4-parameter logistic model to generate a curve and an IC50 value.

Test [6] addresses T4, human JAK2 kinase domain (JH1) (Homo sapiens, UniProt O60674).
T4 construct: recombinantly generated catalytic kinase (also known as JH1) domain of human JAK1, JAK2, JAK3 and TYK2
Nature of the test: JH1 biochemical assay for JAK2 (ADP-Glo kinase assay, recombinant JH1 catalytic domain, JAK3-974 peptide, 15 μM ATP). The settings on record: JH1 kinase domain, ADP-Glo. In a few lines:
as §1

The target in test [7] is JAK1 kinase activity on STAT3 in TF1 cells (Homo sapiens, UniProt P23458). The test is described as follows: pSTAT3 cell assay (MSD; TF1 cells, 30 ng/mL IL-6 stimulation). The class given is cell-based. The conditions noted are these: 30 ng/mL IL-6, 15 minutes. As for the experimental part: The inhibitory potency of compounds of the disclosure against the JAK1 kinase activity on STAT3 was evaluated using an MSD-platform plate-based assay format. TF1 cells natively expressing STAT3 and JAK1 were serum-starved to reduce background phosphorylation levels, then cells were treated with compounds of the disclosure for 1 hour with a 10-point four-fold dilution series starting at 10 μM. Cells were then stimulated with 30 ng/mL interleukin 6 (IL-6) for 15 minutes. Cells were lysed and pSTAT3 levels were quantitated using an MSD plate-based assay with anti-STAT3 antibodies. The data were normalized and the percent activity versus log concentration of compound was fitted with a 4-parameter logistic model to generate IC50 curves.
Sequence of JAK1 kinase activity on STAT3 in TF1 cells (P23458 whole entry): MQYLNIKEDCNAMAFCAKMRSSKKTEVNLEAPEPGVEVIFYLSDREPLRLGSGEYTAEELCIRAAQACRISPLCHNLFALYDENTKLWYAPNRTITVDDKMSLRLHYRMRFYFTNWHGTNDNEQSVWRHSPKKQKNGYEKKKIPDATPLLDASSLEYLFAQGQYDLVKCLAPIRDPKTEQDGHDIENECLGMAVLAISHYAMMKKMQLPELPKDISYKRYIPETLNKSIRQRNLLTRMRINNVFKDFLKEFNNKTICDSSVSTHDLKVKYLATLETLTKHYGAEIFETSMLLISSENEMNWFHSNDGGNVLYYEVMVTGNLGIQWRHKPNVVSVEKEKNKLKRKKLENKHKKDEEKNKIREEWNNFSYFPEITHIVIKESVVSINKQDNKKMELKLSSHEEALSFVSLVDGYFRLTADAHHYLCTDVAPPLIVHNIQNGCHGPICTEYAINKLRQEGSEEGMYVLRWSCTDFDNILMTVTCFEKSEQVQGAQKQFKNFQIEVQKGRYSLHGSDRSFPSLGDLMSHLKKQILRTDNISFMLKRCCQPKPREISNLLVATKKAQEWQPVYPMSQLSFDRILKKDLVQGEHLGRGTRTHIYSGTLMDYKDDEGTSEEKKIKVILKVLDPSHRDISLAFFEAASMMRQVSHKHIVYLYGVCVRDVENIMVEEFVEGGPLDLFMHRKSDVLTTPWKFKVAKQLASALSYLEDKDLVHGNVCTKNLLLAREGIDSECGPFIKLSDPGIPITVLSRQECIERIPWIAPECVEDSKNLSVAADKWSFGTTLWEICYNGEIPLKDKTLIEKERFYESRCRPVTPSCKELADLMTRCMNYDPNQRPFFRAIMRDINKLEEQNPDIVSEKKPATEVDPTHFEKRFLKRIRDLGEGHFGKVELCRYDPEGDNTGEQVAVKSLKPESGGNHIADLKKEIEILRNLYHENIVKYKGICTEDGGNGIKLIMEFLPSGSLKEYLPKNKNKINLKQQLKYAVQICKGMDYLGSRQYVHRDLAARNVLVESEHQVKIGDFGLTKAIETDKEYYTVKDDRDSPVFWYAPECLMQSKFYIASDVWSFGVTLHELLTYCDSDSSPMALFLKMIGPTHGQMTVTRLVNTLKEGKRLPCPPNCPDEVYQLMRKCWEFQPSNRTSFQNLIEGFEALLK

Sequence of Tyk2 kinase activity on STAT4 in NK92 cells (P29597 whole entry): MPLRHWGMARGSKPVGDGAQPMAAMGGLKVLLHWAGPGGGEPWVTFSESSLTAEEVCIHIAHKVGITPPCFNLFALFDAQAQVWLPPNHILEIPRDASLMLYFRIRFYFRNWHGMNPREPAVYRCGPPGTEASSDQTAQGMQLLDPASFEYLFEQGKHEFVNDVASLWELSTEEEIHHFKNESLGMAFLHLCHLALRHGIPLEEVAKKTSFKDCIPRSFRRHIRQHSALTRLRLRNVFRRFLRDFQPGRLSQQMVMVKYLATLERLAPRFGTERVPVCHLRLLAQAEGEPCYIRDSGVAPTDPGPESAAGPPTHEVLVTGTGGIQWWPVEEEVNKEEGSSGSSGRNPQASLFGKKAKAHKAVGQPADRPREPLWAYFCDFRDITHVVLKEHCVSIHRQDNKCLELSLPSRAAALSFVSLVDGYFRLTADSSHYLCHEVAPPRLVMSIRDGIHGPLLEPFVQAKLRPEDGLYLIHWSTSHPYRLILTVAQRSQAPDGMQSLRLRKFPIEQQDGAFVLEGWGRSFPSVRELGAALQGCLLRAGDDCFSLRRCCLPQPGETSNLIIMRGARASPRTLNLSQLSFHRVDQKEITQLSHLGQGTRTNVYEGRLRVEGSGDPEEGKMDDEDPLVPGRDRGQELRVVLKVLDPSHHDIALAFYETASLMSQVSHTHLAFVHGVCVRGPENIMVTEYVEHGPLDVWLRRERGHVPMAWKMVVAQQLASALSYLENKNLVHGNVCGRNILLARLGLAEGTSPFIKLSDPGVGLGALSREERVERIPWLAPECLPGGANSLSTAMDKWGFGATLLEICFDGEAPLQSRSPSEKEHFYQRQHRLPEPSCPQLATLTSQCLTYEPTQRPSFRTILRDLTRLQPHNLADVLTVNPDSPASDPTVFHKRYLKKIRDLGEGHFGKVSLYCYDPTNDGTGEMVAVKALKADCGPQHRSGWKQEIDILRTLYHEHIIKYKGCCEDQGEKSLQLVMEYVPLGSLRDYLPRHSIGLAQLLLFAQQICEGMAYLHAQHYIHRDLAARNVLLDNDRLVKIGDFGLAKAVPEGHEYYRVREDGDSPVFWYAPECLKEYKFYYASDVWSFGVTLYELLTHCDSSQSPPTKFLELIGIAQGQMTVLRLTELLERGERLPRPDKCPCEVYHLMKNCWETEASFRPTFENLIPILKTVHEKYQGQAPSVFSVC
T4 sequence (O60674 849-1124 limits assumed): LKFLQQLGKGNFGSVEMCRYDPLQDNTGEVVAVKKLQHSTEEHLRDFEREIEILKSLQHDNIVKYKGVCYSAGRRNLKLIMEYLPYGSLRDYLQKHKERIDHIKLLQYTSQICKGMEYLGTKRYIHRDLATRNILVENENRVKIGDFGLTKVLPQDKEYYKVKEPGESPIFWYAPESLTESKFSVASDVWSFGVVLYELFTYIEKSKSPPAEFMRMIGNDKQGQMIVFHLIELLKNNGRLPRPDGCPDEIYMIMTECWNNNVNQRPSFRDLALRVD
T1 sequence (P23458 875-1153 limits assumed): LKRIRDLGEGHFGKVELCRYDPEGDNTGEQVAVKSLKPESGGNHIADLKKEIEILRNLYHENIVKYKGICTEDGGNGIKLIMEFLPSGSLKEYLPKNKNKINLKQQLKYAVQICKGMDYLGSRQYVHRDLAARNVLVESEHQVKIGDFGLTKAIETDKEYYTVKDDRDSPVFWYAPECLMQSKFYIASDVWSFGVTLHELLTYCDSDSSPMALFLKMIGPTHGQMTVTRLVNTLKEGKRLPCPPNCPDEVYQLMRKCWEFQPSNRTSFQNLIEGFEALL
Sequence of JAK2 kinase activity on STAT5 in TF1 cells (O60674 whole entry): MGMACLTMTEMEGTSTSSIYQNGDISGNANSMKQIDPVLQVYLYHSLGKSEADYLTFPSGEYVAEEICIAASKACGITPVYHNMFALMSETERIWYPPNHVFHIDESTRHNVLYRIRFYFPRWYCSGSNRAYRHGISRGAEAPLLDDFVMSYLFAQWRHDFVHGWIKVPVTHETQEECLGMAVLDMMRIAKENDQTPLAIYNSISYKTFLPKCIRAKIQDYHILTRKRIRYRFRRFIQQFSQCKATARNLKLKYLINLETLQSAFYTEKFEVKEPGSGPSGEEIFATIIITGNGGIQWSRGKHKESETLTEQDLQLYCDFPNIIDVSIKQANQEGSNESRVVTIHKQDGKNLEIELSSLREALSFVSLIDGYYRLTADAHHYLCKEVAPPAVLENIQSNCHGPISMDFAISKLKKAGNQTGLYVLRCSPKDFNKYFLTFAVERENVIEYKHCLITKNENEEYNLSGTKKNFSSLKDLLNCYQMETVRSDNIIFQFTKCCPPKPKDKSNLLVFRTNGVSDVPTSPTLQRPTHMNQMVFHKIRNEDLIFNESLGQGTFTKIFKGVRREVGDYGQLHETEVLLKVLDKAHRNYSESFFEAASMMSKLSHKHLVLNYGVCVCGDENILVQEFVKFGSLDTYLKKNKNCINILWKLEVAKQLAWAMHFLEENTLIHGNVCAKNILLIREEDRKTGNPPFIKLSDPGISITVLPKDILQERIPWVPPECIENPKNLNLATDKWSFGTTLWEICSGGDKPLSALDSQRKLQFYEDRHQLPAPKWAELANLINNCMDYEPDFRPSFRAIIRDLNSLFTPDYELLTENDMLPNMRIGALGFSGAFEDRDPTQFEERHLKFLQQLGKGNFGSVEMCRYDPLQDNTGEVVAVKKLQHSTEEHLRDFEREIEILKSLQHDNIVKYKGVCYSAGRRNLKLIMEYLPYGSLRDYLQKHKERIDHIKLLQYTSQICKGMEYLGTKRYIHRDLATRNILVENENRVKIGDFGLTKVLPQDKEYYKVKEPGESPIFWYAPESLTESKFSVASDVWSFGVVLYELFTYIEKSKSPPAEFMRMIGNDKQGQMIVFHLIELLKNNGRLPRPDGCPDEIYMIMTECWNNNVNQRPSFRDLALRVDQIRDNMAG
T2 sequence (P52333 822-1111 limits assumed): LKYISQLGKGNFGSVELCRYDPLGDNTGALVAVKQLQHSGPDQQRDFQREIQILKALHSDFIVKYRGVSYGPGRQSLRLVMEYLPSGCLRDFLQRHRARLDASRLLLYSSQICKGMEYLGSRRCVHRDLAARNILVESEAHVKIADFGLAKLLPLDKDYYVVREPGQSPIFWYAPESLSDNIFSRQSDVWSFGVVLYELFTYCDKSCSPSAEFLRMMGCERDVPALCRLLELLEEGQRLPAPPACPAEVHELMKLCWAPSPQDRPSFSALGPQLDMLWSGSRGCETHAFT

As for `Cn1cc(-c2cc3c(N4CC[C@@](C#N)(C5CC5)C4=O)ccnn3c2)cn1` [Example 9, (S)-3-cyclopropyl-1-(6-(1-methyl-1H-pyrazol-4-yl)pyrrolo[1,2-b]pyridazin-4-yl)-2-oxopyrrolidine-3-carbonitrile], the IC50 in test [1] is 100 to 1000 nM; in test [2], more than 100 nM; in test [3], 100 to 1000 nM; in test [4] it was 5 to 20 nM; in test [5] it was 5000 to 10000 nM; in test [6], 100 to 1000 nM. In test [7], the IC50 lay within 1000 to 5000 nM.
Consider `N#C[C@@]1(C2CC2)CCN(c2ccnn3cc(-c4cnn(C(F)F)c4)cc23)C1=O` [Example 10, (S)-3-cyclopropyl-1-(6-(1-(difluoromethyl)-1H-pyrazol-4-yl)pyrrolo[1,2-b]pyridazin-4-yl)-2-oxopyrrolidine-3-carbonitrile], for which the IC50 in test [1] is 100 to 1000 nM; in test [2], more than 100 nM; in test [3], 100 to 1000 nM; in test [4], 5 to 20 nM; in test [5], more than 10000 nM; in test [6], 100 to 1000 nM. In test [7], this compound displayed an IC50 of 1000 to 5000 nM.
On to `Cc1cc(-c2cc3c(N4CC[C@@](C#N)(C5CC5)C4=O)ccnn3c2)on1` [Example 11, (S)-3-cyclopropyl-1-(6-(3-methylisoxazol-5-yl)pyrrolo[1,2-b]pyridazin-4-yl)-2-oxopyrrolidine-3-carbonitrile], for which the IC50 was 1000 to 5000 nM in test [1]; more than 100 nM in test [2]; 100 to 1000 nM in test [3]; 20 to 50 nM in test [4]; more than 10000 nM in test [5]; 1000 to 5000 nM in test [6]. The IC50 in test [7] is more than 10000 nM.
Take `Cn1cc(-c2cc3c(N4CC[C@@](C#N)(C5CC5)C4=O)ccnn3c2)c(F)n1` [Example 12, (S)-3-cyclopropyl-1-(6-(3-fluoro-1-methyl-1H-pyrazol-4-yl)pyrrolo[1,2-b]pyridazin-4-yl)-2-oxopyrrolidine-3-carbonitrile]: the IC50 in test [1] was 100 to 1000 nM; in test [2] it was more than 100 nM; in test [3], 100 to 1000 nM; in test [4] it was 5 to 20 nM; in test [5], more than 10000 nM; in test [6], 100 to 1000 nM. In test [7], this compound yielded an IC50 of 1000 to 5000 nM.
Turning to `C[C@H]1CN(c2ccnn3cc(-c4cnn(C)c4)cc23)C(=O)[C@]1(C#N)C1CC1` [Example 22, (3R,4R)-3-cyclopropyl-4-methyl-1-(6-(1-methyl-1H-pyrazol-4-yl)pyrrolo[1,2-b]pyridazin-4-yl)-2-oxopyrrolidine-3-carbonitrile], the IC50 in test [1] was 1000 to 5000 nM; in test [2], more than 100 nM; in test [3], 1000 to 5000 nM; in test [4], 50 to 100 nM; in test [5], more than 10000 nM; in test [6], 1000 to 5000 nM. Besides, in test [7], the IC50 is more than 10000 nM.
Turning to `CC[C@@H]1CN(c2ccnn3cc(-c4cnn(C)c4)cc23)C(=O)[C@]1(C#N)C1CC1` [Example 23, (3R,4S)-3-cyclopropyl-4-ethyl-1-(6-(1-methyl-1H-pyrazol-4-yl)pyrrolo[1,2-b]pyridazin-4-yl)-2-oxopyrrolidine-3-carbonitrile], the IC50 in test [1] lay in the range of 100 to 1000 nM; in test [2], 50 to 100 nM; in test [3] it was 100 to 1000 nM; in test [4], 5 to 20 nM; in test [5], 5000 to 10000 nM; in test [6], 100 to 1000 nM. The same compound gave a concentration for half-maximal inhibition (IC50) in test [7] of 1000 to 5000 nM.
As for `C[C@@H]1CN(c2ccnn3c(F)c(-c4cnn(C)c4)cc23)C(=O)[C@]1(C#N)C1CC1` [Example 28, (3R,4S)-3-cyclopropyl-1-(7-fluoro-6-(1-methyl-1H-pyrazol-4-yl)pyrrolo[1,2-b]pyridazin-4-yl)-4-methyl-2-oxopyrrolidine-3-carbonitrile], the half-inhibitory concentration (IC50) in test [1] was 1000 to 5000 nM; in test [2] it was more than 100 nM; in test [3] it was more than 10000 nM; in test [4] it was 50 to 100 nM; in test [5], more than 10000 nM; in test [6], 5000 to 10000 nM. For the same compound, the IC50 in test [7] was more than 10000 nM.
On to `C[C@@H]1CN(c2ccnn3cc(-c4cnn(C)c4)cc23)C(=O)[C@]1(C#N)C1CC1` [Example 34, (3R,4S)-3-cyclopropyl-4-methyl-1-(6-(1-methyl-1H-pyrazol-4-yl)pyrrolo[1,2-b]pyridazin-4-yl)-2-oxopyrrolidine-3-carbonitrile], for which the IC50 was 100 to 1000 nM in test [1]; 20 to 50 nM in test [2]; 100 to 1000 nM in test [3]; less than 5 nM in test [4]; 5000 to 10000 nM in test [5]; 100 to 1000 nM in test [6]. Besides, in test [7], the concentration for half-maximal inhibition (IC50) fell in the range of 1000 to 5000 nM.
As to `C[C@@H]1CN(c2ccnn3cc(-c4cnn(C(F)F)c4)cc23)C(=O)[C@]1(C#N)C1CC1` [Example 35, (3R,4S)-3-cyclopropyl-1-(6-(1-(difluoromethyl)-1H-pyrazol-4-yl)pyrrolo[1,2-b]pyridazin-4-yl)-4-methyl-2-oxopyrrolidine-3-carbonitrile], the half-maximal inhibitory concentration (IC50) is 100 to 1000 nM in test [1]; 20 to 50 nM in test [2]; 100 to 1000 nM in test [3]; less than 5 nM in test [4]; 5000 to 10000 nM in test [5]; 100 to 1000 nM in test [6]. Further, in test [7], the IC50 was 1000 to 5000 nM.
With `COc1ccc(-c2cc3c(N4C[C@@H](C)[C@@](C#N)(C5CC5)C4=O)ccnn3c2)cn1` [Example 48, (3R,4S)-3-cyclopropyl-1-(6-(6-methoxypyridin-3-yl)pyrrolo[1,2-b]pyridazin-4-yl)-4-methyl-2-oxopyrrolidine-3-carbonitrile], the IC50 in test [1] was 100 to 1000 nM; in test [2] it was more than 100 nM; in test [3], 100 to 1000 nM; in test [4], 5 to 20 nM; in test [5], 5000 to 10000 nM; in test [6] it was 100 to 1000 nM. The compound also had a half-maximal inhibitory concentration (IC50) in test [7] of 1000 to 5000 nM.
Regarding `C[C@@H]1CN(c2ccnn3cc(-c4ccc5cncn5c4)cc23)C(=O)[C@]1(C#N)C1CC1` [Example 51, (3R,4S)-3-cyclopropyl-1-(6-(imidazo[1,5-a]pyridin-6-yl)pyrrolo[1,2-b]pyridazin-4-yl)-4-methyl-2-oxopyrrolidine-3-carbonitrile], the 50% inhibitory concentration (IC50) in test [1] is less than 100 nM; in test [2] it was 50 to 100 nM; in test [3], 100 to 1000 nM; in test [4], 5 to 20 nM; in test [5] it was more than 10000 nM; in test [6], 100 to 1000 nM. In test [7], this compound had an IC50 of 1000 to 5000 nM.
With `C[C@@H]1CN(c2ccnn3cc(-c4ccc(S(C)(=O)=O)nc4)cc23)C(=O)[C@]1(C#N)C1CC1` [Example 52, (3R,4S)-3-cyclopropyl-4-methyl-1-(6-(6-(methylsulfonyl)pyridin-3-yl)pyrrolo[1,2-b]pyridazin-4-yl)-2-oxopyrrolidine-3-carbonitrile], the IC50 in test [1] is 100 to 1000 nM; in test [2] it was more than 100 nM; in test [3], 100 to 1000 nM; in test [4], 5 to 20 nM; in test [5], more than 10000 nM; in test [6], 100 to 1000 nM. The IC50 in test [7] is 5000 to 10000 nM.
For the compound `C[C@@H]1CN(c2ccnn3cc(-c4cncc(O)c4)cc23)C(=O)[C@]1(C#N)C1CC1` [Example 53, (3R,4S)-3-cyclopropyl-1-(6-(5-hydroxypyridin-3-yl)pyrrolo[1,2-b]pyridazin-4-yl)-4-methyl-2-oxopyrrolidine-3-carbonitrile], the half-inhibitory concentration (IC50) in test [1] is 100 to 1000 nM; in test [2] it was more than 100 nM; in test [3], 100 to 1000 nM; in test [4] it was 5 to 20 nM; in test [5] it was more than 10000 nM; in test [6], 100 to 1000 nM. Further, the 50% inhibitory concentration (IC50) in test [7] fell in the range of 5000 to 10000 nM.
